This note sets out measurements from patent US10561655B2 (SYNBLia Therapeutics, Inc., priority 2018, dated 2020).

One assay has as its system cells. Kind of assay: Cell Proliferation Assay (CellTiter Glo). It is filed as cell-based. The protocol: Firstly, the cells were seeded in 384-well cell culture plate and incubate overnight. The test compounds were added to the cell plate and incubated for 3-5 days. The cell plate was then detected using CellTiter Glo reagents.
On the technique in general: ATP-based viability assays read luminescence as a measure of living cells.

For the next assay, the system named is p-ERK/total ERK. As to the kind of experiment: p-ERK/total ERK Cellular Assay. The class given is cell-based. As for the experimental part: p-ERK/total ERK Cellular Assay
Cells were seeded in 384-well cell culture plate and incubated overnight. Test compounds were added to the cell plate and the plate was incubated for 2-6 hours. To detect p-ERK, the cell plate was used AlphaLISA SureFire Ultra p-ERK kit; to detect total ERK, the cell plate was used total ERK HTRF kit. The plate was read on the Envision.

Another assay deals with Full length SHP2 enzyme (Homo sapiens (Human), UniProt Q06124). As to the kind of experiment: SHP2 Phosphatase Assays. It is filed as biochemical. The following applies: full length SHP2 0.1 nM, 1 uM IRS-1 peptide, DiFMUP substrate, room temperature. The protocol: IC50 values were determined at room temperature in 384-well black polystyrene plate, using a final reaction volume of 15 μl and the following assay buffer conditions: 60 mM Hepes (pH=7.2), 75 mM NaCl, 75 mM KCl, and 1 mM EDTA, 0.05% P-20, 5 mM dithiothreitol (DTT). Full length SHP2 enzyme (diluted to 0.1 nM in reaction buffer) were co-incubated with 1 uM IRS-1 peptide and 0.01 nM to 10 μM compounds of the disclosure for 60 min. The surrogate substrate DiFMUP (5 μL, […]) was added, and incubated at rt for 60 min. The reaction was then quenched by the addition of 5 μL of a 40 μM solution of bpV(Phen). The fluorescence signal was monitored using a microplate reader (Envision, Perkin-Elmer) using excitation and emission wavelengths of 360 nm and 450 nm, respectively. The inhibitor dose-response curves were analyzed using normalized IC50 regression curve fitting with control-based normalization.

Setting [1] is: 3-5 days incubation, CellTiter Glo, read-out: IC50.
Where [2] appears, read: p-ERK (AlphaLISA SureFire Ultra) / total ERK (HTRF), 2-6 hours incubation, read-out: IC50.

Each structure is given as a SMILES string. Read-outs that look alike come from different tables or passages of the source.

Sequence of Full length SHP2 enzyme (Q06124 whole entry): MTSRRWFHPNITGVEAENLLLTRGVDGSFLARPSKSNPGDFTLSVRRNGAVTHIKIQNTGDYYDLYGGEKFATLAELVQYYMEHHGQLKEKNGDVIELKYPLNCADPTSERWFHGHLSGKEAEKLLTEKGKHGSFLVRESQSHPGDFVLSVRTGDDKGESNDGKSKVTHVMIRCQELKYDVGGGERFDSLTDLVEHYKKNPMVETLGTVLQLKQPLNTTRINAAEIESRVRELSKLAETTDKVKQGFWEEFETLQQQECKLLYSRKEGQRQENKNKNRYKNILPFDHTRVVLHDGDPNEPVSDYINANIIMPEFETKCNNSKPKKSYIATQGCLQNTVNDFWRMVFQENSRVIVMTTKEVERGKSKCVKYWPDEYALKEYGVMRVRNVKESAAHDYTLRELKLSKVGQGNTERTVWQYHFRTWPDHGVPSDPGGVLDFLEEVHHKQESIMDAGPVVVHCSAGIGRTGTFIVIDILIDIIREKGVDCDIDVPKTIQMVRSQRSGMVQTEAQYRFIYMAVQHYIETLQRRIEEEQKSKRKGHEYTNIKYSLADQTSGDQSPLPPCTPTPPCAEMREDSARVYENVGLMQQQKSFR

For `CC1(CN)CCN(c2ncc(Sc3cccc(Cl)c3Cl)[nH]c2=O)CC1` [Compound 2, 3-(4-(aminomethyl)-4-methylpiperidin-1-yl)-6-((2,3-dichlorophenyl)thio)pyrazin-2(1H)-one], the IC50 was less than 5000 nM with cells, less than 500 nM in the assay with p-ERK/total ERK and no more than 50 nM against Full length SHP2 enzyme.

For `NC1COCC12CCN(c1ncc(Sc3cccc(Cl)c3Cl)[nH]c1=O)CC2` (centres unmarked) [Compound 10, 3-(4-amino-2-oxa-8-azaspiro[4.5]decan-8-yl)-6-((2,3-dichlorophenyl)thio)pyrazin-2(1H)-one], the IC50 in the assay with cells was less than 5000 nM; with p-ERK/total ERK it was less than 100 nM.

At Full length SHP2 enzyme, `NC1C2CC2CC12CCN(c1ncc(Sc3cccc(Cl)c3Cl)[nH]c1=O)CC2` (centres unmarked) [Compound 13, 3-(2-aminospiro[bicyclo[3.1.0]hexane-3,4′-piperidin]-1′-yl)-6-((2,3-dichlorophenyl)thio)pyrazin-2(1H)-one] gave an IC50 of no more than 50 nM.

As to `C[C@@H]1OCC2(CCN(c3ncc(Sc4cccc(Cl)c4Cl)[nH]c3=O)CC2)[C@@H]1N` [Compound 14], the IC50 with cells (setting [1]) is less than 1000 nM; in the assay on p-ERK/total ERK (setting [2]), less than 100 nM; against Full length SHP2 enzyme, no more than 50 nM.

In the case of `CC1(CN)CCN(c2ncc(Sc3cccc(NC(=O)c4c(O)nc5ccccn5c4=O)c3Cl)[nH]c2=O)CC1` [Compound 29, N-(3-((5-(4-(aminomethyl)-4-methylpiperidin-1-yl)-6-oxo-1,6-dihydropyrazin-2-yl)thio)-2-chlorophenyl)-2-hydroxy-4-oxo-4H-pyrido[1,2-a]pyrimidine-3-carboxamide], the IC50 in the assay with cells (setting [1]) was less than 5000 nM; in the assay on p-ERK/total ERK (setting [2]) it was less than 100 nM; on Full length SHP2 enzyme, no more than 50 nM.

`CC1(CN)CCN(c2ncc(Sc3cccc(NC(=O)c4c(O)nc5cnccn5c4=O)c3Cl)[nH]c2=O)CC1` [Compound 30, N-(3-((5-(4-(aminomethyl)-4-methylpiperidin-1-yl)-6-oxo-1,6-dihydropyrazin-2-yl)thio)-2-chlorophenyl)-2-hydroxy-4-oxo-4H-pyrazino[1,2-a]pyrimidine-3-carboxamide]: in the assay on p-ERK/total ERK (setting [2]), the IC50 was less than 100 nM.

In the case of `CC1(CN)CCN(c2ncc(Sc3cccc(NC(=O)c4c(O)nc5sccn5c4=O)c3Cl)[nH]c2=O)CC1` [Compound 31, N-(3-((5-(4-(aminomethyl)-4-methylpiperidin-1-yl)-6-oxo-1,6-dihydropyrazin-2-yl)thio)-2-chlorophenyl)-7-hydroxy-5-oxo-5H-thiazolo[3,2-a]pyrimidine-6-carboxamide], the IC50 in the assay on cells (setting [1]) is less than 5000 nM; with p-ERK/total ERK (setting [2]), less than 100 nM; against Full length SHP2 enzyme it was no more than 50 nM.

On to `CC1(CN)CCN(c2ncc(Sc3cccc(NC(=O)c4c(O)nc5[nH]ccn5c4=O)c3Cl)[nH]c2=O)CC1` [Compound 32, N-(3-((5-(4-(aminomethyl)-4-methylpiperidin-1-yl)-6-oxo-1,6-dihydropyrazin-2-yl)thio)-2-chlorophenyl)-7-hydroxy-5-oxo-1,5-dihydroimidazo[1,2-a]pyrimidine-6-carboxamide], for which the IC50 against Full length SHP2 enzyme was no more than 50 nM.

Regarding `CC1(CN)CCN(c2ncc(Sc3cccc(NC(=O)c4c(O)nc5n(c4=O)CCCC5)c3Cl)[nH]c2=O)CC1` [Compound 33, N-(3-((5-(4-(aminomethyl)-4-methylpiperidin-1-yl)-6-oxo-1,6-dihydropyrazin-2-yl)thio)-2-chlorophenyl)-2-hydroxy-4-oxo-6,7,8,9-tetrahydro-4H-pyrido[1,2-a]pyrimidine-3-carboxamide], the values for the IC50 with p-ERK/total ERK (setting [2]) and on Full length SHP2 enzyme were less than 100 nM and no more than 50 nM, respectively.

In the case of `CC1(CN)CCN(c2nc3[nH]nc(Nc4cccc(Cl)c4Cl)c3c(=O)[nH]2)CC1` [Compound 34, 6-(4-(aminomethyl)-4-methylpiperidin-1-yl)-3-((2,3-dichlorophenyl)amino)-1,5-dihydro-4H-pyrazolo[3,4-d]pyrimidin-4-one], the IC50 was less than 500 nM in the assay with p-ERK/total ERK (setting [2]) and no more than 50 nM on Full length SHP2 enzyme.

Turning to `CC1(CN)CCN(c2nc3[nH]nc(Oc4cccc(Cl)c4Cl)c3c(=O)[nH]2)CC1` [Compound 35, 6-(4-(aminomethyl)-4-methylpiperidin-1-yl)-3-(2,3-dichlorophenoxy)-1,5-dihydro-4H-pyrazolo[3,4-d]pyrimidin-4-one], the IC50 in the assay with p-ERK/total ERK (setting [2]) is less than 500 nM; against Full length SHP2 enzyme it was no more than 50 nM.

Take `Cn1c(N2CCC(C)(CN)C2)nc(N)c(Sc2cccc(Cl)c2Cl)c1=O` (centres unmarked) [Compound 52, 6-amino-2-(3-(aminomethyl)-3-methylpyrrolidin-1-yl)-5-((2,3-dichlorophenyl)thio)-3-methylpyrimidin-4(3H)-one]: the IC50 against Full length SHP2 enzyme was no more than 50 nM.

`N[C@@H]1COCC12CCN(c1ncc(Sc3cccc(Cl)c3Cl)[nH]c1=O)CC2` [Compound 73, (S)-3-(4-amino-2-oxa-8-azaspiro[4.5]decan-8-yl)-6-((2,3-dichlorophenyl)thio)pyrazin-2(1H)-one]: the figures for the IC50 in the assay with cells (setting [1]), in the assay with p-ERK/total ERK (setting [2]) and against Full length SHP2 enzyme were less than 5000 nM, less than 100 nM and no more than 50 nM, respectively.

As for `NC1CCCC(n2ccc(-c3cccc(Cl)c3Cl)cc2=O)C1` (centres unmarked) [Compound 74, 1-(3-aminocyclohexyl)-4-(2,3-dichlorophenyl)pyridin-2(1H)-one], the IC50 against Full length SHP2 enzyme is no more than 50 nM.

With `C[C@@H]1OCC2(CCN(c3ncc(Sc4ccnc(N)c4Cl)[nH]c3=O)CC2)[C@@H]1N` [Compound 77, 6-((2-amino-3-chloropyridin-4-yl)thio)-3-((3S,4S)-4-amino-3-methyl-2-oxa-8-azaspiro[4.5]decan-8-yl)pyrazin-2(1H)-one], the concentration for half-maximal inhibition (IC50) against Full length SHP2 enzyme was no more than 50 nM.

`COc1cccc(Sc2cnc(N3CCC4(CC3)CO[C@@H](C)[C@H]4N)c(=O)[nH]2)c1Cl` [Compound 79, 3-((3S,4S)-4-amino-3-methyl-2-oxa-8-azaspiro[4.5]decan-8-yl)-6-((2-chloro-3-methoxyphenyl)thio)pyrazin-2(1H)-one]: the results for the IC50 in the assay with p-ERK/total ERK (setting [2]) and against Full length SHP2 enzyme were less than 100 nM and no more than 50 nM, respectively.

Consider `COc1nccc(Sc2cnc(N3CCC4(CC3)CO[C@@H](C)[C@H]4N)c(=O)[nH]2)c1Cl` [Compound 80, 3-((3S,4S)-4-amino-3-methyl-2-oxa-8-azaspiro[4.5]decan-8-yl)-6-((3-chloro-2-methoxypyridin-4-yl)thio)pyrazin-2(1H)-one], for which the values for the IC50 in the assay with p-ERK/total ERK (setting [2]) and against Full length SHP2 enzyme were less than 100 nM and no more than 50 nM, respectively.

As for `C[C@@H]1OCC2(CCN(c3ncc(Sc4ccnc(Cl)c4Cl)[nH]c3=O)CC2)[C@@H]1N` [Compound 81, 3-((3S,4S)-4-amino-3-methyl-2-oxa-8-azaspiro[4.5]decan-8-yl)-6-((2,3-dichloropyridin-4-yl)thio)pyrazin-2(1H)-one], the IC50 in the assay with cells (setting [1]) is less than 1000 nM; with p-ERK/total ERK (setting [2]), less than 100 nM; at Full length SHP2 enzyme, no more than 50 nM.

With `C[C@@H]1OCC2(CCN(c3ncc(Sc4cccc(F)c4F)[nH]c3=O)CC2)[C@@H]1N` [Compound 82, 3-((3S,4S)-4-amino-3-methyl-2-oxa-8-azaspiro[4.5]decan-8-yl)-6-((2,3-difluorophenyl)thio)pyrazin-2(1H)-one], the IC50 is less than 5000 nM with cells (setting [1]), less than 100 nM in the assay on p-ERK/total ERK (setting [2]) and no more than 50 nM on Full length SHP2 enzyme.

Consider `C[C@@H]1OCC2(CCN(c3ncc(Sc4ccnc(F)c4Cl)[nH]c3=O)CC2)[C@@H]1N` [Compound 83, 3-((3S,4S)-4-amino-3-methyl-2-oxa-8-azaspiro[4.5]decan-8-yl)-6-((3-chloro-2-fluoropyridin-4-yl)thio)pyrazin-2(1H)-one], for which the figures for the IC50 in the assay with cells (setting [1]), with p-ERK/total ERK (setting [2]) and on Full length SHP2 enzyme were less than 1000 nM, less than 100 nM and no more than 50 nM, respectively.

Take `C[C@@H]1OCC2(CCN(c3ncc(Sc4ccnc(F)c4F)[nH]c3=O)CC2)[C@@H]1N` [Compound 84]: the IC50 is less than 1000 nM in the assay on cells (setting [1]), less than 100 nM in the assay on p-ERK/total ERK (setting [2]) and no more than 50 nM on Full length SHP2 enzyme.

On Full length SHP2 enzyme, `NC1C2CN(c3ncc(Sc4cccc(Cl)c4Cl)[nH]c3=O)CC12` (centres unmarked) [Compound 86, 3-(6-amino-3-azabicyclo[3.1.0]hexan-3-yl)-6-((2,3-dichlorophenyl)thio)pyrazin-2(1H)-one] gave an IC50 of no more than 50 nM.

`N[C@@H]1c2ccccc2OC12CCN(c1ncc(Sc3cccc(Cl)c3Cl)[nH]c1=O)CC2` [Compound 87, (R)-3-(3-amino-3H-spiro[benzofuran-2,4′-piperidin]-1′-yl)-6-((2,3-dichlorophenyl)thio)pyrazin-2(1H)-one] yielded an IC50 at Full length SHP2 enzyme of no more than 50 nM.

`N[C@@H]1COCC12CCN(c1ncc(Sc3ccnc(Cl)c3Cl)[nH]c1=O)CC2` [Compound 88, (S)-3-(4-amino-2-oxa-8-azaspiro[4.5]decan-8-yl)-6-((2,3-dichloropyridin-4-yl)thio)pyrazin-2(1H)-one] returned an IC50 at Full length SHP2 enzyme of no more than 50 nM.

Take `C[C@@H]1OCC2(CCN(c3ncc(Sc4cc[nH]c(=O)c4Cl)[nH]c3=O)CC2)[C@@H]1N` [Compound 107, 3-((3S,4S)-4-amino-3-methyl-2-oxa-8-azaspiro[4.5]decan-8-yl)-6-((3-chloro-2-oxo-1,2-dihydropyridin-4-yl)thio)pyrazin-2(1H)-one]: on Full length SHP2 enzyme, the IC50 is no more than 50 nM.

On Full length SHP2 enzyme, `N[C@@H]1c2ccccc2CC12CCN(c1ncc(Sc3cccc(Cl)c3Cl)[nH]c1=O)CC2` [Compound 108, (S)-3-(1-amino-1,3-dihydrospiro[indene-2,4′-piperidin]-1′-yl)-6-((2,3-dichlorophenyl)thio)pyrazin-2(1H)-one] returned an IC50 of no more than 50 nM.

A word on the IC50: it is the concentration that gives 50% inhibition.
